In brackets after ≈: the same amount, converted by molar mass.
Tests used:
Assay type in all cases: functional
A549 = test: Cytotoxicity against human A549 cells; conditions: read-out: LC50 (the source's name)
Staphylococcus aureus = test: Antimicrobial activity against Staphylococcus aureus ATCC 6538p after 24 hrs by twofold dilution method
Proteus hauseri = test: Antimicrobial activity against Proteus hauseri NBRC 3851 after 24 hrs by twofold dilution method; conditions: NBRC 3851, 24 h
K562 = test: Cytotoxicity against human K562 cells; conditions: read-out: LC50 (the source's name)
Kocuria rhizophila = test: Antimicrobial activity against Kocuria rhizophila NBRC 12708 after 24 hrs by twofold dilution method; conditions: NBRC 12708, 24 h
Bacillus subtilis = test: Antimicrobial activity against Bacillus subtilis ATCC 6633 after 24 hrs by twofold dilution method; conditions: ATCC 6633, 24 h
Salmonella enterica = test: Antimicrobial activity against Salmonella enterica ATCC 14028 after 24 hrs by twofold dilution method; conditions: ATCC 14028, 24 h

| SMILES | CC50 (A549) | MIC (Staphylococcus aureus) | MIC (Proteus hauseri) | CC50 (K562) | MIC (Kocuria rhizophila) | MIC (Bacillus subtilis) | MIC (Salmonella enterica) |
| --- | --- | --- | --- | --- | --- | --- | --- |
| CC1=CC(=O)[C@@H]2[C@@]3(C)CCCC(C)(C)[C@@H]3[C@@H](O)C[C@]2(C)c2c1ccc(C)c2O | 4.7 µM | > 100 µg/mL | > 100 µg/mL | 5.4 µM |  |  |  |
| C=C1/C=C\[C@@H]2[C@@]3(C)CCCC(C)(C)[C@@H]3[C@H](O)C[C@@]2(C)O[C@@H]2C=C(C)C(=O)C[C@H]12 | 3.9 µM | > 100 µg/mL | > 100 µg/mL | 4.5 µM |  |  |  |
| CC(=O)[C@H]1CC[C@@]2(C)C3=C(CC[C@]12C)[C@@]1(C)CCC(O[C@@H]2O[C@H](C(=O)O)[C@@H](O)[C@H](OS(=O)(=O)[O-])[C@H]2O)C(C)(C)[C@@H]1CC3.[Na+] (some centres undefined) | 2.1 µM | > 100 µg/mL | 3.1 µg/mL | 1.8 µM | > 100 µg/mL | 1.6 µg/mL | > 100 µg/mL |
| COc1c(C)ccc2c1[C@@]1(C)C[C@H](O)[C@H]3C(C)(C)CCC[C@]3(C)[C@H]1C(=O)C=C2C | > 100 µM |  |  | > 100 µM |  |  |  |
| CC1(C)S[C@@H]2[C@H](NC(=O)[C@H](N)c3ccccc3)C(=O)N2[C@H]1C(=O)O [AMPICILLIN] |  | 0.4 µg/mL (≈ 1.14 µM) | 0.4 µg/mL (≈ 1.14 µM) |  | 0.4 µg/mL (≈ 1.14 µM) | 0.4 µg/mL (≈ 1.14 µM) | 0.8 µg/mL (≈ 2.29 µM) |
| COc1cccc2c1C(=O)c1c(O)c3c(c(O)c1C2=O)C[C@@](O)(C(=O)CO)C[C@@H]3O[C@H]1C[C@H](N)[C@H](O)[C@H](C)O1 [DOXORUBICIN] | 1.1 µM |  |  | 1.5 µM |  |  |  |
